Test results reported in PMC8593021, “Biophysical and functional characterization of the human TAS1R2 sweet taste receptor overexpressed in a HEK293S inducible cell line” (Scientific Reports, 2021).

T1: hTAS1R2 (Homo sapiens, UniProt Q8TE23)
T1 sequence (Q8TE23 20-839): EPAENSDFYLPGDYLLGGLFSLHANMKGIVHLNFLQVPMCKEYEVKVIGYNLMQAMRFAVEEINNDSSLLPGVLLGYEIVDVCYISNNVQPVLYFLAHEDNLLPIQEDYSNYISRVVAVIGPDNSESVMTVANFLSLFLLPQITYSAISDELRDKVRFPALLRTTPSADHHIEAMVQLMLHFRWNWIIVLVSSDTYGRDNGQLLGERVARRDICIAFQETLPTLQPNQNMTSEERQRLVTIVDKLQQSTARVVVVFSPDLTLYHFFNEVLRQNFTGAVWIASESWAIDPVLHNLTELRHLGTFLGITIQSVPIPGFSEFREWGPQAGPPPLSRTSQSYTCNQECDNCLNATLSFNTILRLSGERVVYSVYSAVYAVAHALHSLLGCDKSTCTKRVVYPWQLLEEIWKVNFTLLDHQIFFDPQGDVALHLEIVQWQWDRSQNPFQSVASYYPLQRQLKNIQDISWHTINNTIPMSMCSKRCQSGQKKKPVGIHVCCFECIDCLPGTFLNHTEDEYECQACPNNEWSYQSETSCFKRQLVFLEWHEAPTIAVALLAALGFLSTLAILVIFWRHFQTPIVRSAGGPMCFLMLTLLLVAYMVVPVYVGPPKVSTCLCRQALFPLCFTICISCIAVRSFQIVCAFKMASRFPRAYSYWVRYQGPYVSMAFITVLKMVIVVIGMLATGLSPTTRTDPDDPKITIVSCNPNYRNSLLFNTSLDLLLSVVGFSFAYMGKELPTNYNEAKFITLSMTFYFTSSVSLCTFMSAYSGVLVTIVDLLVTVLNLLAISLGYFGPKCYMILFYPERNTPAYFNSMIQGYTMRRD

T2: hTAS1R2/hTAS1R3 (Homo sapiens, UniProt Q7RTX0+Q8TE23)
T2 construct: expressed in transfected cells; host or cells: HEK293T cells stably expressing Gα16gust44, transiently transfected
T2 sequence (Q8TE23 20-839): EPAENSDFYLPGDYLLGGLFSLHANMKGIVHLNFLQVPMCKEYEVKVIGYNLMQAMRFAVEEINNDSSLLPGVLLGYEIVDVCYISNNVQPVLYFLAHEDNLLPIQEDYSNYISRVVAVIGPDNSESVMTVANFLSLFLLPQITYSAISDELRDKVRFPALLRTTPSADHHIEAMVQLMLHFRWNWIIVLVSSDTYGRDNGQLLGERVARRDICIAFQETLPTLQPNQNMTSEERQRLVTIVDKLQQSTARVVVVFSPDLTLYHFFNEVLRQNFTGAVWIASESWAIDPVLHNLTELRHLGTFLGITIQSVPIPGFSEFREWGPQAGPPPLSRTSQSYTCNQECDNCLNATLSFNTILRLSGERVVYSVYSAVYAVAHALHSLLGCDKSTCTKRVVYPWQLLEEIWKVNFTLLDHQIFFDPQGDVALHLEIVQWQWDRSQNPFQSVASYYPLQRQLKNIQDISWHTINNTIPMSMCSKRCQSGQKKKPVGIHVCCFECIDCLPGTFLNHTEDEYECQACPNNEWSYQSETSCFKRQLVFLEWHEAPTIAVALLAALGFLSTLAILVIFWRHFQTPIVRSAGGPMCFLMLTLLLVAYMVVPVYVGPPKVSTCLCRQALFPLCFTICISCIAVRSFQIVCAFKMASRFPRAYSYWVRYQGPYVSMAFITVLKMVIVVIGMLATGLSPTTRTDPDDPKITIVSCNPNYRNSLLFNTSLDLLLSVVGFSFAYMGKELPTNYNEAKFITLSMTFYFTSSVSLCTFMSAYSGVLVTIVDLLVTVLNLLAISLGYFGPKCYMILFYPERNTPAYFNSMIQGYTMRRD
T2 sequence (Q7RTX0 21-852): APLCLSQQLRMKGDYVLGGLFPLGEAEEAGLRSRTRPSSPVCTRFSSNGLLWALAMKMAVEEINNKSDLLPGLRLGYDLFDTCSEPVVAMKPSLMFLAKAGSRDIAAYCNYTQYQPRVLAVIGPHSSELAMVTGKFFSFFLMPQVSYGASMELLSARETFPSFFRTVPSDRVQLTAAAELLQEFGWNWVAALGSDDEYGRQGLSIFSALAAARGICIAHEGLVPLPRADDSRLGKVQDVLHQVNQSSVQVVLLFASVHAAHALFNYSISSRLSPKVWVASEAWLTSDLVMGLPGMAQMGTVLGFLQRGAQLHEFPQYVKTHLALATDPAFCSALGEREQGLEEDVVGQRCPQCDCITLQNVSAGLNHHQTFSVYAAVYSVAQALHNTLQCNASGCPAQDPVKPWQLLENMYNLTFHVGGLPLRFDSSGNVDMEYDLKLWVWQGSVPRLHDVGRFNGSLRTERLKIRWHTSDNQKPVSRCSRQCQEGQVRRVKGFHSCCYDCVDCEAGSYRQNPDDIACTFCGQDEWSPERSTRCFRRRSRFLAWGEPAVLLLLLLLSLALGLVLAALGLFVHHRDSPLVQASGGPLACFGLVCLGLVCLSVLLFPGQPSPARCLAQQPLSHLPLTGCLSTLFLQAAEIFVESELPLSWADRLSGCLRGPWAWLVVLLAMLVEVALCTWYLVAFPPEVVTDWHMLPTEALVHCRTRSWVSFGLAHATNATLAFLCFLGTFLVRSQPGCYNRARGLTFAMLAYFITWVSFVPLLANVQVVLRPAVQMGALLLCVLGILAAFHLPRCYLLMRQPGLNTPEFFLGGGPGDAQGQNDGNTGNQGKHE

T3: hTAS1R3 (Homo sapiens, UniProt Q7RTX0)
T3 construct: expressed in transfected cells; host or cells: HEK293T cells stably expressing Gα16gust44, transiently transfected
T3 sequence (Q7RTX0 21-852): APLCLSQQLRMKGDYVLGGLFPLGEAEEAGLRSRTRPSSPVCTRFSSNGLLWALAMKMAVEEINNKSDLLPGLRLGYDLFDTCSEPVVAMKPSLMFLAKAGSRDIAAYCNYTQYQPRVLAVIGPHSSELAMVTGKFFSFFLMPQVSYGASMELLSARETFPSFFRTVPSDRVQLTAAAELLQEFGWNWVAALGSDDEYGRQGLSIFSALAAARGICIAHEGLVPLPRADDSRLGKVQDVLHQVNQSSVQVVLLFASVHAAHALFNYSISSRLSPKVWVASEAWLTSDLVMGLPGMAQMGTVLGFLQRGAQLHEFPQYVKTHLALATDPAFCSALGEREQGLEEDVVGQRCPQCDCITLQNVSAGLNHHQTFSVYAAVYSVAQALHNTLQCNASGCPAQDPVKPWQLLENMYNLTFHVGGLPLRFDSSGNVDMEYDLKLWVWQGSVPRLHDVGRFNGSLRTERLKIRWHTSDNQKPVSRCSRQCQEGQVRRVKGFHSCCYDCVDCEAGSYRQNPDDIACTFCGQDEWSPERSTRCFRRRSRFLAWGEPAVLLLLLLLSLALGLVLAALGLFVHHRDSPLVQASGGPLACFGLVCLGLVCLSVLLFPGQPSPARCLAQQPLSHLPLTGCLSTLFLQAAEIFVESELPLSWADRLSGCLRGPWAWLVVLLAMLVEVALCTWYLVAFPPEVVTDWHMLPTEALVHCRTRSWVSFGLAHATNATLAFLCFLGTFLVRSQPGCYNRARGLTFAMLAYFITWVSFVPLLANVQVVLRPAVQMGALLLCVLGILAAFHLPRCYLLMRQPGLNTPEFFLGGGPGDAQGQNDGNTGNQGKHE


Key:
[1] = target: T1, hTAS1R2; assay: Intrinsic tryptophan fluorescence ligand binding to purified detergent-solubilized hTAS1R2; design: made in house; settings: purified FLAG-tagged hTAS1R2 0.10 µM in PBS, 0.1% LMNG, 20 °C; λex 280 nm, λem 340 nm
Description: Intrinsic fluorescence spectra were recorded with a Cary Eclipse spectrofluorimeter (Varian Instruments, Les Ulis, France) equipped with a Peltier temperature control unit. The temperature was maintained at 20 °C. FLAG-tagged hTAS1R2 protein (0.10 µM in PBS, 0.1% LMNG buffer) was excited at 280 nm, and the emission spectra were recorded from 300 to 400 nm, with a 10 nm bandwidth for both excitation and emission in the presence and absence of ligands. The sweetener solutions were freshly prepared in PBS-0.1% LMNG buffer. Successive aliquots of ligand solutions were added to 400 µL of the FLAG-tagged hTAS1R2 solution. […] The fluorescence measurements were corrected for bleaching and nonspecific buffer quenching. The dissociation constants (Kd) were calculated from a plot of the fluorescence intensity measured at the maximum emission wavelength (340 nm) versus the concentration of total ligand obtained with a standard nonlinear regression method using SigmaPlot software (Systat Software Inc., San Jose, CA, USA). The reported Kd values are the average of triplicate measurements performed on at least three independently purified protein samples.

[2] = target: T2, hTAS1R2/hTAS1R3; assay: Calcium assay (GCaMP6S) in HEK293T-Gα16gust44 cells transfected with hTAS1R2-FLAG and hTAS1R3-FLAG; assay type: cell-based; settings: HEK293T-Gα16gust44 cells transiently transfected with GCaMP6S
Source text: (§1) We used a calcium imaging assay to establish dose–response curves for the sweet taste receptor hTAS1R2/hTAS1R3 and determine EC50 values for the sweet stimuli previously tested in spectrofluorimetric experiments. We cloned the cDNAs coding hTAS1R2 and hTAS1R3 subunits into pcDNA6 and pcDNA4 expression plasmids, respectively, and we added FLAG tag to C-terminus of each construct to measure protein expression level by immunocytochemistry as described previously. HEK293T cells stably transfected with Gα16gust44 were seeded at a density of 0.35 × 10^6 cells per well into 96-well black walled, clear bottom microtiter plates (Falcon) in high-glucose DMEM supplemented with 2 mM GlutaMAX, 10% dialyzed foetal bovine serum, penicillin/streptomycin and G418 (400 µg/mL) at 37 °C and 6.3% CO2, in a humidified atmosphere. After 48 h, the cells were transiently transfected with each TAS1R subunit (60 ng/well for each plasmid) and plasmid pGP-CMV-GCaMP6S (Addgene #40753, 50 ng per well) coding for a green fluorescent protein-based calcium indicator, using Fugene HD (0.4 µL/well). After a further 24 h incubation, the cells were washed twice with buffer C1 and then stimulated with sweet tasting compounds. After excitation at 488 nm, calcium responses were recorded at 510 nm using a Molecular Devices FlexStation 3 system. Acquisition was made simultaneously from 8 wells corresponding to the range of taste solutions. We averaged the responses of 18 wells receiving the same stimulus one three independent experiments. We subtracted the mean calcium traces of mock-transfected cells stimulated with the same concentration of stimulus. Plots of the fluorescence variation amplitude versus concentration were fitted by four-parameter logistic nonlinear regression allowing us to calculate the EC50 values of activation.

[3] = target: T3, hTAS1R3; assay: Calcium assay (GCaMP6S) in HEK293T-Gα16gust44 cells transfected with hTAS1R3-FLAG alone; assay type: cell-based; settings: HEK293T-Gα16gust44 cells transiently transfected with GCaMP6S and hTAS1R3-FLAG alone
Source text: as §1

[4] = target: the molecule itself; assay: SEC-MALS; pooled gel filtration peak 4 (fractions 14-16) of FLAG-tagged hTAS1R2; Superdex 200 Increase 3.2/300, PBS with 0.1% LMNG, pH 7.3, 0.1 mL/min; MALS, RI and UV (280 nm) detectors; protein-detergent complexes

| Kd [1] [µM] | EC50 [2] [µM] | EC50 hTAS1R3 [3] | Molecule | stoichiometry N [4] |
| --- | --- | --- | --- | --- |
| 2.78 ± 0.69 | 0.9 ± 0.09 | n.r. | COC(=O)[C@H](Cc1ccccc1)NC(=O)[C@H](CC(=O)O)NCCC(C)(C)C [Neotame, neotame] |  |
| 29 ± 8 | 36 ± 2 | n.r. | OC[C@H]1O[C@H](O[C@]2(CCl)O[C@H](CCl)[C@@H](O)[C@@H]2O)[C@H](O)[C@@H](O)[C@H]1Cl [Sucralose, sucralose] |  |
|  |  |  | FLAG-tagged human TAS1R2 (taste receptor type 1, member 2) (receptor, UniProt Q8TE23 20-839, looked up, human TAS1R2 (taste receptor type 1, member 2), UniProtKB Q8TE23, full-length protein from a codon-optimised synthetic gene; the purified protein is still detected and captured by anti-FLAG M2; Theoretical mass of FLAG-tagged hTAS1R2 printed as 96.2 kDa; In LMNG detergent; also called hTAS1R2; FLAG-hTAS1R2; not shown: FLAG, N-terminal, kept) EPAENSDFYLPGDYLLGGLFSLHANMKGIVHLNFLQVPMCKEYEVKVIGYNLMQAMRFAVEEINNDSSLLPGVLLGYEIVDVCYISNNVQPVLYFLAHEDNLLPIQEDYSNYISRVVAVIGPDNSESVMTVANFLSLFLLPQITYSAISDELRDKVRFPALLRTTPSADHHIEAMVQLMLHFRWNWIIVLVSSDTYGRDNGQLLGERVARRDICIAFQETLPTLQPNQNMTSEERQRLVTIVDKLQQSTARVVVVFSPDLTLYHFFNEVLRQNFTGAVWIASESWAIDPVLHNLTELRHLGTFLGITIQSVPIPGFSEFREWGPQAGPPPLSRTSQSYTCNQECDNCLNATLSFNTILRLSGERVVYSVYSAVYAVAHALHSLLGCDKSTCTKRVVYPWQLLEEIWKVNFTLLDHQIFFDPQGDVALHLEIVQWQWDRSQNPFQSVASYYPLQRQLKNIQDISWHTINNTIPMSMCSKRCQSGQKKKPVGIHVCCFECIDCLPGTFLNHTEDEYECQACPNNEWSYQSETSCFKRQLVFLEWHEAPTIAVALLAALGFLSTLAILVIFWRHFQTPIVRSAGGPMCFLMLTLLLVAYMVVPVYVGPPKVSTCLCRQALFPLCFTICISCIAVRSFQIVCAFKMASRFPRAYSYWVRYQGPYVSMAFITVLKMVIVVIGMLATGLSPTTRTDPDDPKITIVSCNPNYRNSLLFNTSLDLLLSVVGFSFAYMGKELPTNYNEAKFITLSMTFYFTSSVSLCTFMSAYSGVLVTIVDLLVTVLNLLAISLGYFGPKCYMILFYPERNTPAYFNSMIQGYTMRRD | 2 |
